These results are taken from the supplement of paper PMC11208160.
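Further: IS621 recombinase and bridge RNA in Escherichia coli cells.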

This data set is described as follows: recombinant barcode read abundance after kanamycin selection (control-corrected) (log10(CPM+1)); higher = more efficient recombination; sequences stand for … in AGTGCAGAGAAAATCGGCCAGTTTTCTCTGCCTGCAGTCCGCATGCCGT…AGATTTATGCAGCGGACTGCCTTTCTCCCAAAGTGATAAACCGGACAGTATCATGGACCGGTTTTCCCGGTAATCCGTATTTGCAAGGTTGGTTTCACT; site = the 11-nt target. The procedure, abridged: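 Recombination efficiency in this pooled E. coli screen uses counts per million of barcodes at recombinant junctions, averaged and corrected against the control. The reported form is log10(CPM+1). Two replicates were plated on chloramphenicol/ampicillin LB agar as control and two on chloramphenicol/ampicillin/kanamycin with 0.1 mM IPTG.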
In the case of “TAGGTGTCTTGGGTTCTAACCTGTTGCCT (site TAAGTGTCTAG)”, the “recombinant barcode read abundance (log10)” value came out at 1.04.

For “TAGGTGTCTTGGGTTCTAACCTGTTGCCT (site TACGTGTCTAG)”, the “recombinant barcode read abundance (log10)” value came to 0.181.

As for “TAGGTGTCTTGGGTTCTAACCTGTTGCCT (site TAGGTGTCTAG)”, the “recombinant barcode read abundance (log10)” value worked out at 1.33.

“TAGGTGTCTTGGGTTCTAACCTGTTGCCT (site TATGTGTCTAG)”: the “recombinant barcode read abundance (log10)” value is 0.0655.

As for “TAGGTTCCTTGGGTTCTAACCTGTTGCCT (site TAGGTTCCTAG)”, the “recombinant barcode read abundance (log10)” value amounted to 0.348.

As for “TAGGTTCCTTGGGTTCTAACCTGTTGCCT (site TCGGTTCCTAG)”, the “recombinant barcode read abundance (log10)” value came to 0.161.

Regarding “TAGTACCCTTGGGTTCTAACCTGTTGCAC (site TAGTACCCTAT)”, the “recombinant barcode read abundance (log10)” value is 0.169.

As for “TAGTACCCTTGGGTTCTAACCTGTTGCAC (site TAGTACCCTCT)”, the “recombinant barcode read abundance (log10)” value is 0.298.

In the case of “TAGTACCCTTGGGTTCTAACCTGTTGCAC (site TAGTACCCTGT)”, the “recombinant barcode read abundance (log10)” value worked out at 1.28.

In the case of “TAGTACCCTTGGGTTCTAACCTGTTGCAC (site TAGTACCCTTT)”, the “recombinant barcode read abundance (log10)” value worked out at 0.0304.

For “TAGTACCCTTGGGTTCTAACCTGTTGCAG (site TAGTACCCTAT)”, the “recombinant barcode read abundance (log10)” value was 0.0395.

“TAGTACCCTTGGGTTCTAACCTGTTGCAG (site TAGTACCCTCT)”: the “recombinant barcode read abundance (log10)” value stood at 1.23.

As for “TAGTACCCTTGGGTTCTAACCTGTTGCAG (site TAGTACCCTGT)”, the “recombinant barcode read abundance (log10)” value came out at 0.152.

Turning to “TAGTACCCTTGGGTTCTAACCTGTTGCAG (site TAGTACCCTTT)”, the “recombinant barcode read abundance (log10)” value is 0.0625.

Turning to “TAGTACCCTTGGGTTCTAACCTGTTGCTG (site TAGTAACCTAA)”, the “recombinant barcode read abundance (log10)” value is 0.434.

In the case of “TAGTACCCTTGGGTTCTAACCTGTTGCTG (site TAGTACCCTCA)”, the “recombinant barcode read abundance (log10)” value came out at 1.92.

With “TAGTAGTCTTGGGTTCTAACCTGTTGCGT (site TAGTAGTCTAA)”, the “recombinant barcode read abundance (log10)” value was 0.509.

With “TAGTAGTCTTGGGTTCTAACCTGTTGCGT (site TAGTAGTCTAC)”, the “recombinant barcode read abundance (log10)” value stood at 2.79.

In the case of “TAGTAGTCTTGGGTTCTAACCTGTTGCGT (site TAGTAGTCTAG)”, the “recombinant barcode read abundance (log10)” value worked out at 0.729.

As for “TAGTAGTCTTGGGTTCTAACCTGTTGCGT (site TAGTAGTCTAT)”, the “recombinant barcode read abundance (log10)” value came out at 2.34.

On to “TAGTCATCTTGGGTTCTAACCTGTTGCTC (site TAGACATCTGA)”, for which the “recombinant barcode read abundance (log10)” value was 0.0065.

Take “TAGTCATCTTGGGTTCTAACCTGTTGCTC (site TAGCCATCTGA)”: the “recombinant barcode read abundance (log10)” value came to 0.252.

For the sequence “TAGTCATCTTGGGTTCTAACCTGTTGCTC (site TAGGCATCTGA)”, the “recombinant barcode read abundance (log10)” value came to 0.243.

On to “TAGTCATCTTGGGTTCTAACCTGTTGCTC (site TAGTCATCTGA)”, for which the “recombinant barcode read abundance (log10)” value is 1.41.

As for “TAGTCCACTTGGGTTCTAACCTGTTGCGC (site CTCAAAGCTCG)”, the “recombinant barcode read abundance (log10)” value was 0.0907.

For “TAGTCCACTTGGGTTCTAACCTGTTGCGC (site TAGTCCACTGC)”, the “recombinant barcode read abundance (log10)” value was determined as 1.98.

For the sequence “TAGTCCGCTTGGGTTCTAACCTGTTGCGG (site GAGTTCGCTCC)”, the “recombinant barcode read abundance (log10)” value worked out at 0.00991.

As for “TAGTCCGCTTGGGTTCTAACCTGTTGCGG (site TAGTCCGCTCC)”, the “recombinant barcode read abundance (log10)” value was 0.0626.

On to “TAGTCCTCTTGGGTTCTAACCTGTTGCTT (site TAGTCCTCTAA)”, for which the “recombinant barcode read abundance (log10)” value was 1.22.

“TAGTCCTCTTGGGTTCTAACCTGTTGCTT (site TAGTCCTCTCA)”: the “recombinant barcode read abundance (log10)” value was found to be 0.173.

For “TAGTCCTCTTGGGTTCTAACCTGTTGCTT (site TAGTCCTCTGA)”, the “recombinant barcode read abundance (log10)” value is 0.13.

As to “TAGTCCTCTTGGGTTCTAACCTGTTGCTT (site TAGTCCTCTTA)”, the “recombinant barcode read abundance (log10)” value worked out at 0.0542.

On to “TAGTCGACTTGGGTTCTAACCTGTTGCTT (site TAGACGACTAA)”, for which the “recombinant barcode read abundance (log10)” value came out at 0.652.

Consider “TAGTCGACTTGGGTTCTAACCTGTTGCTT (site TAGCCGACTAA)”, for which the “recombinant barcode read abundance (log10)” value worked out at 0.307.

As for “TAGTCGACTTGGGTTCTAACCTGTTGCTT (site TAGGCGACTAA)”, the “recombinant barcode read abundance (log10)” value amounted to 0.0688.

For “TAGTCGACTTGGGTTCTAACCTGTTGCTT (site TAGTCGACTAA)”, the “recombinant barcode read abundance (log10)” value is 0.103.

Consider “TAGTCGTCTTGGGTTCTAACCTGTTGCCT (site TAGTCGTCTAA)”, for which the “recombinant barcode read abundance (log10)” value was determined as 0.238.

For “TAGTCGTCTTGGGTTCTAACCTGTTGCCT (site TAGTCGTCTAG)”, the “recombinant barcode read abundance (log10)” value came to 1.3.

Turning to “TAGTCGTCTTGGGTTCTAACCTGTTGCTA (site TAGTCGTCTTA)”, the “recombinant barcode read abundance (log10)” value was 0.505.

Consider “TAGTCGTCTTGGGTTCTAACCTGTTGCTA (site TATTTGTCTTA)”, for which the “recombinant barcode read abundance (log10)” value was 0.438.

As to “TAGTCTCCTTGGGTTCTAACCTGTTGCGT (site TAGTATCCTAC)”, the “recombinant barcode read abundance (log10)” value stood at 0.227.

With “TAGTCTCCTTGGGTTCTAACCTGTTGCGT (site TAGTCTCCTAC)”, the “recombinant barcode read abundance (log10)” value amounted to 0.314.

Turning to “TAGTCTCCTTGGGTTCTAACCTGTTGCGT (site TAGTGTCCTAC)”, the “recombinant barcode read abundance (log10)” value was found to be 0.0837.

For “TAGTCTCCTTGGGTTCTAACCTGTTGCGT (site TAGTTTCCTAC)”, the “recombinant barcode read abundance (log10)” value stood at 0.135.

Turning to “TAGTGAGCTTGGGTTCTAACCTGTTGCCG (site GCCCATCCTTA)”, the “recombinant barcode read abundance (log10)” value is 0.065.

On to “TAGTGAGCTTGGGTTCTAACCTGTTGCCG (site TAGTGAGCTCG)”, for which the “recombinant barcode read abundance (log10)” value turned out to be 1.44.

Consider “TAGTGAGCTTGGGTTCTAACCTGTTGCCT (site TAGTGAGCTAG)”, for which the “recombinant barcode read abundance (log10)” value turned out to be 1.37.

As for “TAGTGAGCTTGGGTTCTAACCTGTTGCCT (site TCGTGAGCTAG)”, the “recombinant barcode read abundance (log10)” value was found to be 0.134.

With “TAGTGCTCTTGGGTTCTAACCTGTTGCCC (site TAGTGCTCTAG)”, the “recombinant barcode read abundance (log10)” value worked out at 0.675.

As to “TAGTGCTCTTGGGTTCTAACCTGTTGCCC (site TAGTGCTCTCG)”, the “recombinant barcode read abundance (log10)” value is 0.576.

Consider “TAGTGCTCTTGGGTTCTAACCTGTTGCCC (site TAGTGCTCTGG)”, for which the “recombinant barcode read abundance (log10)” value turned out to be 1.37.

Regarding “TAGTGCTCTTGGGTTCTAACCTGTTGCCC (site TAGTGCTCTTG)”, the “recombinant barcode read abundance (log10)” value is 0.116.

Regarding “TAGTGTCCTTGGGTTCTAACCTGTTGCCT (site TAGTGTACTAG)”, the “recombinant barcode read abundance (log10)” value was 0.126.

In the case of “TAGTGTCCTTGGGTTCTAACCTGTTGCCT (site TAGTGTCCTAG)”, the “recombinant barcode read abundance (log10)” value is 1.11.

“TAGTGTCCTTGGGTTCTAACCTGTTGCCT (site TAGTGTGCTAG)”: the “recombinant barcode read abundance (log10)” value is 0.521.

Turning to “TAGTGTCCTTGGGTTCTAACCTGTTGCCT (site TAGTGTTCTAG)”, the “recombinant barcode read abundance (log10)” value is 0.405.

Turning to “TAGTGTCCTTGGGTTCTAACCTGTTGCGT (site TAGTATCCTAC)”, the “recombinant barcode read abundance (log10)” value came to 0.309.

On to “TAGTGTCCTTGGGTTCTAACCTGTTGCGT (site TAGTCTCCTAC)”, for which the “recombinant barcode read abundance (log10)” value was 0.104.

Take “TAGTGTCCTTGGGTTCTAACCTGTTGCGT (site TAGTGTCCTAC)”: the “recombinant barcode read abundance (log10)” value is 1.86.

For the sequence “TAGTGTCCTTGGGTTCTAACCTGTTGCGT (site TAGTTTCCTAC)”, the “recombinant barcode read abundance (log10)” value amounted to 0.0286.

As for “TAGTGTGCTTGGGTTCTAACCTGTTGCCT (site TAGTGTACTAG)”, the “recombinant barcode read abundance (log10)” value came to 0.514.

Take “TAGTGTGCTTGGGTTCTAACCTGTTGCCT (site TAGTGTCCTAG)”: the “recombinant barcode read abundance (log10)” value is 0.137.

For “TAGTGTGCTTGGGTTCTAACCTGTTGCCT (site TAGTGTGCTAG)”, the “recombinant barcode read abundance (log10)” value was 1.06.

Take “TAGTGTGCTTGGGTTCTAACCTGTTGCCT (site TAGTGTTCTAG)”: the “recombinant barcode read abundance (log10)” value was 0.0139.

For the sequence “TAGTGTTCTTGGGTTCTAACCTGTTGCCT (site TAGTGTACTAG)”, the “recombinant barcode read abundance (log10)” value stood at 0.104.

As to “TAGTGTTCTTGGGTTCTAACCTGTTGCCT (site TAGTGTCCTAG)”, the “recombinant barcode read abundance (log10)” value amounted to 0.181.

With “TAGTGTTCTTGGGTTCTAACCTGTTGCCT (site TAGTGTGCTAG)”, the “recombinant barcode read abundance (log10)” value amounted to 0.106.

As to “TAGTGTTCTTGGGTTCTAACCTGTTGCCT (site TAGTGTTCTAG)”, the “recombinant barcode read abundance (log10)” value came to 0.57.

For the sequence “TAGTTAGCTTGGGTTCTAACCTGTTGCCT (site TAGTTAGCTAG)”, the “recombinant barcode read abundance (log10)” value is 0.756.

For “TAGTTAGCTTGGGTTCTAACCTGTTGCCT (site TAGTTAGCTCG)”, the “recombinant barcode read abundance (log10)” value was found to be 0.217.

For the sequence “TAGTTAGCTTGGGTTCTAACCTGTTGCCT (site TAGTTAGCTGG)”, the “recombinant barcode read abundance (log10)” value is 0.251.

“TAGTTAGCTTGGGTTCTAACCTGTTGCCT (site TAGTTAGCTTG)”: the “recombinant barcode read abundance (log10)” value came out at 0.11.

As to “TAGTTCACTTGGGTTCTAACCTGTTGCCA (site TAGTTAACTTG)”, the “recombinant barcode read abundance (log10)” value was 0.273.

On to “TAGTTCACTTGGGTTCTAACCTGTTGCCA (site TAGTTCACTTG)”, for which the “recombinant barcode read abundance (log10)” value came out at 0.0767.

Take “TAGTTCACTTGGGTTCTAACCTGTTGCCA (site TAGTTGACTTG)”: the “recombinant barcode read abundance (log10)” value came to 0.0545.

“TAGTTCACTTGGGTTCTAACCTGTTGCCA (site TAGTTTACTTG)”: the “recombinant barcode read abundance (log10)” value is 0.0834.

As for “TAGTTGTCTTGGGTTCTAACCTGTTGCTT (site CGACGCACTCC)”, the “recombinant barcode read abundance (log10)” value worked out at 0.301.
